Measured values reported in PMC3152630 (Pharmaceutical research, 2011).

Tested on: diabetic rats (blood glucose level, BGL)
Test: BGL pharmacodynamics after insulin administration to diabetic rats
Type: in vivo, rat
Settings: bolus subcutaneous injection of 0.1 U insulin, unbalanced ANOVA, P < 0.001

Insulin
reduction in BGL compared to untreated controls: significant reduction in BGL
